Measurements taken from patent US20150337013A1, “NOVEL ANTIBACTERIAL AGENTS FOR THE TREATMENT OF GRAM POSITIVE INFECTIONS” (priority 2008, published 2015).
Like-named read-outs stand apart in the source and are kept apart here.

How the values were obtained:
[1] = test system: Enterococcus faecalis EFS.201 (ATCC 49452); type: cell-based
Method in brief: (§1)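 MIC in μg/mL, taken as the lowest compound concentration producing no visible turbidity after 18-20 hours at 37° C with shaking at 200 rpm. Organisms were grown in calcium-supplemented (50 mg/L) Mueller Hinton broth at 5×10^5 bacteria per well.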

[2] = test system: Enterococcus faecalis EFS.312, Daptomycin resistant mutant (EFA); type: cell-based; conditions: MHBc with 50 mg/L calcium, 18-20 hours at 37° C.
Method in brief: as §1

[3] = test system: Enterococcus faecium EFM.14 (ATCC 6569); type: cell-based
Method in brief: as §1

[4] = test system: Enterococcus faecium EFM.384, Daptomycin resistant mutant (14-A); type: cell-based; conditions: MHBc with 50 mg/L calcium, 18-20 hours at 37° C.
Method in brief: as §1

[5] = test system: Staphylococcus aureus SAU.278, Daptomycin resistant mutant (D10); type: cell-based; conditions: MHBc with 50 mg/L calcium, 18-20 hours at 37° C.
Method in brief: as §1

[6] = test system: Staphylococcus aureus SAU.399 (ATCC 43300), Methicillin and Oxacillin Resistant; type: cell-based
Method in brief: as §1

[7] = test system: Staphylococcus aureus SAU.42 (ATCC 29213); type: cell-based
Method in brief: as §1

[8] = MHBc with 50 mg/L calcium, 18-20 hours at 37° C.

Compound | Efs201 MIC ([1]; ATCC 49452) | Efs312 MIC [2] | Efm14 MIC ([3]; ATCC 6569) | Efm384 MIC [4] | Sa278 MIC [5] | Sa399 MIC ([6]; ATCC 43300) | Sa42 MIC ([7]; ATCC 29213) | C. diff MIC90 (Clostridium difficile) | Efs201 MIC [1, 8] | Efm14 MIC [3, 8] | Sa399 MIC [6, 8] | Sa42 MIC [7, 8]
CCCCCCCCC1CC1C(=O)N[C@@H](Cc1c[nH]c2ccccc12)C(=O)N[C@H](CC(N)=O)C(=O)N[C@@H](CC(=O)O)C(=O)N[C@@H]1C(=O)NCC(=O)N[C@@H](CCCN)C(=O)N[C@@H](CC(=O)O)C(=O)N[C@H](C)C(=O)N[C@@H](CC(=O)O)C(=O)NCC(=O)N[C@H](CO)C(=O)N[C@@H]([C@H](C)CC(=O)O)C(=O)N[C@@H](CC(=O)c2ccccc2N)C(=O)O[C@@H]1C (single isomer, unassigned) [27 isomer II] | 0.5 µg/mL | 32 µg/mL | 1 µg/mL | 4 µg/mL | 2 µg/mL | 0.5 µg/mL | 1 µg/mL | 1 µg/mL | – | – | – | –
CCCCCCCCOc1ccc(C(=O)N[C@@H](Cc2c[nH]c3ccccc23)C(=O)N[C@H](CC(N)=O)C(=O)N[C@@H](CC(=O)O)C(=O)N[C@@H]2C(=O)NCC(=O)N[C@@H](CCCN)C(=O)N[C@@H](CC(=O)O)C(=O)N[C@H](C)C(=O)N[C@@H](CC(=O)O)C(=O)NCC(=O)N[C@H](CO)C(=O)N[C@@H]([C@H](C)CC(=O)O)C(=O)N[C@@H](CC(=O)c3ccccc3N)C(=O)O[C@@H]2C)cc1 [Compound 36] | – | 4 µg/mL | – | 4 µg/mL | 1.00 µg/mL | – | – | 0.5 µg/mL | 0.5 µg/mL | 0.5 µg/mL | 0.25 µg/mL | 0.25 µg/mL
CCCCc1ccc(CC(=O)N[C@@H](Cc2c[nH]c3ccccc23)C(=O)N[C@H](CC(N)=O)C(=O)N[C@@H](CC(=O)O)C(=O)N[C@@H]2C(=O)NCC(=O)N[C@@H](CCCN)C(=O)N[C@@H](CC(=O)O)C(=O)N[C@H](C)C(=O)N[C@@H](CC(=O)O)C(=O)NCC(=O)N[C@H](CO)C(=O)N[C@@H]([C@H](C)CC(=O)O)C(=O)N[C@@H](CC(=O)c3ccccc3N)C(=O)O[C@@H]2C)cc1 [Compound 44] | 8 µg/mL | >32 µg/mL | 16 µg/mL | >32 µg/mL | 4 µg/mL | 4 µg/mL | 4 µg/mL | 8.00 µg/mL | – | – | – | –
CCCCCCCc1ccc(NC(=O)N[C@@H](Cc2c[nH]c3ccccc23)C(=O)N[C@H](CC(N)=O)C(=O)N[C@@H](CC(=O)O)C(=O)N[C@@H]2C(=O)NCC(=O)N[C@@H](CCCN)C(=O)N[C@@H](CC(=O)O)C(=O)N[C@H](C)C(=O)N[C@@H](CC(=O)O)C(=O)NCC(=O)N[C@H](CO)C(=O)N[C@@H]([C@H](C)CC(=O)O)C(=O)N[C@@H](CC(=O)c3ccccc3N)C(=O)O[C@@H]2C)cc1 [Compound 51] | 0.25 µg/mL | 8 µg/mL | 0.5 µg/mL | 4 µg/mL | 1 µg/mL | 0.125 µg/mL | 0.125 µg/mL | 0.5 µg/mL | – | – | – | –
C[C@H](CC(=O)O)[C@@H]1NC(=O)[C@@H](CO)NC(=O)CNC(=O)[C@H](CC(=O)O)NC(=O)[C@@H](C)NC(=O)[C@H](CC(=O)O)NC(=O)[C@H](CCCN)NC(=O)CNC(=O)[C@@H](NC(=O)[C@H](CC(=O)O)NC(=O)[C@@H](CC(N)=O)NC(=O)[C@H](Cc2c[nH]c3ccccc23)NC(=O)CCCCC2CCCCC2)[C@@H](C)OC(=O)[C@H](CC(=O)c2ccccc2N)NC1=O [Compound 24] | 2 µg/mL | >32 µg/mL | 4 µg/mL | 32 µg/mL | 8 µg/mL | 1 µg/mL | 1 µg/mL | 4 µg/mL | – | – | – | –
C[C@H](CC(=O)O)[C@@H]1NC(=O)[C@@H](CO)NC(=O)CNC(=O)[C@H](CC(=O)O)NC(=O)[C@@H](C)NC(=O)[C@H](CC(=O)O)NC(=O)[C@H](CCCN)NC(=O)CNC(=O)[C@@H](NC(=O)[C@H](CC(=O)O)NC(=O)[C@@H](CC(N)=O)NC(=O)[C@H](Cc2c[nH]c3ccccc23)NC(=O)Cc2ccc(-c3ccccc3)cc2)[C@@H](C)OC(=O)[C@H](CC(=O)c2ccccc2N)NC1=O [Compound 66] | – | >32 µg/mL | – | >32 µg/mL | >32 µg/mL | – | – | 8 µg/mL | >32 µg/mL | >32 µg/mL | 8 µg/mL | 8 µg/mL
CCCCCCCCOc1ccc(-c2ccc(C(=O)N[C@@H](Cc3c[nH]c4ccccc34)C(=O)N[C@H](CC(N)=O)C(=O)N[C@@H](CC(=O)O)C(=O)N[C@@H]3C(=O)NCC(=O)N[C@@H](CCCN)C(=O)N[C@@H](CC(=O)O)C(=O)N[C@H](C)C(=O)N[C@@H](CC(=O)O)C(=O)NCC(=O)N[C@H](CO)C(=O)N[C@@H]([C@H](C)CC(=O)O)C(=O)N[C@@H](CC(=O)c4ccccc4N)C(=O)O[C@@H]3C)cc2)cc1 [Compound 64] | – | 16 µg/mL | – | 4 µg/mL | 0.5 µg/mL | – | – | 1 µg/mL | 0.5 µg/mL | 1 µg/mL | 0.25 µg/mL | 0.125 µg/mL
C[C@H](CC(=O)O)[C@@H]1NC(=O)[C@@H](CO)NC(=O)CNC(=O)[C@H](CC(=O)O)NC(=O)[C@@H](C)NC(=O)[C@H](CC(=O)O)NC(=O)[C@H](CCCN)NC(=O)CNC(=O)[C@@H](NC(=O)[C@H](CC(=O)O)NC(=O)[C@@H](CC(N)=O)NC(=O)[C@H](Cc2c[nH]c3ccccc23)NC(=O)c2ccc(-c3ccc(-c4ccccc4)cc3)cc2)[C@@H](C)OC(=O)[C@H](CC(=O)c2ccccc2N)NC1=O [Compound 69] | – | 32 µg/mL | – | 4 µg/mL | 0.125 µg/mL | – | – | 2 µg/mL | 0.5 µg/mL | 0.5 µg/mL | 0.125 µg/mL | 0.125 µg/mL
CCCCCCOc1ccc(C(=O)N[C@@H](Cc2c[nH]c3ccccc23)C(=O)N[C@H](CC(N)=O)C(=O)N[C@@H](CC(=O)O)C(=O)N[C@@H]2C(=O)NCC(=O)N[C@@H](CCCN)C(=O)N[C@@H](CC(=O)O)C(=O)N[C@H](C)C(=O)N[C@@H](CC(=O)O)C(=O)NCC(=O)N[C@H](CO)C(=O)N[C@@H]([C@H](C)CC(=O)O)C(=O)N[C@@H](CC(=O)c3ccccc3N)C(=O)O[C@@H]2C)cc1 [Compound 35] | – | >32 µg/mL | – | 32 µg/mL | 4.00 µg/mL | – | – | 2 µg/mL | 1.0 µg/mL | 2 µg/mL | 0.5 µg/mL | 0.5 µg/mL
CCCCCCCCCCCCCC(=O)N[C@@H](Cc1c[nH]c2ccccc12)C(=O)N[C@H](CC(N)=O)C(=O)N[C@@H](CC(=O)O)C(=O)N[C@@H]1C(=O)NCC(=O)N[C@@H](CCCN)C(=O)N[C@@H](CC(=O)O)C(=O)N[C@H](C)C(=O)N[C@@H](CC(=O)O)C(=O)NCC(=O)N[C@H](CO)C(=O)N[C@@H]([C@H](C)CC(=O)O)C(=O)N[C@@H](CC(=O)c2ccccc2N)C(=O)O[C@@H]1C [Compound 6] | 0.25 µg/mL | 4 µg/mL | 0.5 µg/mL | 4 µg/mL | 2 µg/mL | 0.25 µg/mL | 1 µg/mL | 16 µg/mL | – | – | – | –
CC(C)Cc1ccc(C(C)C(=O)N[C@@H](Cc2c[nH]c3ccccc23)C(=O)N[C@H](CC(N)=O)C(=O)N[C@@H](CC(=O)O)C(=O)N[C@@H]2C(=O)NCC(=O)N[C@@H](CCCN)C(=O)N[C@@H](CC(=O)O)C(=O)N[C@H](C)C(=O)N[C@@H](CC(=O)O)C(=O)NCC(=O)N[C@H](CO)C(=O)N[C@@H]([C@H](C)CC(=O)O)C(=O)N[C@@H](CC(=O)c3ccccc3N)C(=O)O[C@@H]2C)cc1 (single isomer, unassigned) [45 isomer II] | 32 µg/mL | >32 µg/mL | 32 µg/mL | >32 µg/mL | >32 µg/mL | 4 µg/mL | 4 µg/mL | 8 µg/mL | – | – | – | –
